“And” between values parts separate entries of the source, which are not always exact repeats. Identical values can stand only once.
Legend:
[1] = NMTRC 002: DFMO serum pharmacokinetics in children with NB; conditions: for AUC(0-t) / Tmax / Cmax: human, serum
Protocol: Pharmacokinetic (PK) Analytical Method and Sample Collection. Patients were consented for all pharmacokinetic sampling and analysis. […] The extracted samples were injected into a liquid chromatograph equipped with an Atlantis Hilic Silica, 50×4.6 mm, 3 μm column. The mobile phase A was a mixture of Milli-Q type water with acetonitrile and ammonium acetate. The validated calibration range for this assay was from 50 to 100,000 ng/mL. […] Blood was not collected beyond 6 hours post dose as this trial was conducted on an outpatient basis, and this was judged to be an undue burden on patients.
Statistical Methods. […] Urinary polyamine levels were derived from duplicate measurements of individual samples. […] Fisher's Exact Test was used to assess the likelihood that increases in urinary polyamine levels were associated with disease progression. Friedman's test for repeated measures analysis of variance was used to assess changes in contents of individual urinary polyamines.
Samples were collected from patients prior to, and again at times 0.5, 1, 3, and 6 hours following drug administration on days 1 and 8 of the first cycle. […] Subsequent cycles commenced the day following the last day of the previous cycle.

[2] = adults; cited from earlier work
[3] = toxicities related to DFMO alone
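Throughout, for ALT elevation, maximum Grade 2, patients (%): Open-label multicenter phase I 3+3 dose escalation in patients aged 0-21 years with relapsed or refractory neuroblastoma, dosed twice daily.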
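Throughout, for ALT elevation, maximum Grade 3, patients (%): Open-label multicenter phase I 3+3 dose escalation in patients aged 0-21 years with relapsed or refractory neuroblastoma, dosed twice daily.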
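Throughout, for dose-limiting toxicities (DLTs) or drug related serious adverse events (SAEs): Open-label multicenter phase I 3+3 dose escalation in patients aged 0-21 years with relapsed or refractory neuroblastoma, dosed twice daily.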
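Throughout, for tolerability in pediatric patients: Open-label multicenter phase I 3+3 dose escalation in patients aged 0-21 years with relapsed or refractory neuroblastoma, dosed twice daily.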

## NCCCC(N)(C(=O)O)C(F)F (stereo not drawn) [DFMO, 2,5-diamino-2-(difluoromethyl) pentanoic acid]
[1]; 500 mg/m^2 PO BID, Cycle 1
  AUC0-6 hrs: 39.90 ± 24.16 (mcg/mL) × hrs
[1]; 750 mg/m^2 PO BID, Cycle 1
  AUC0-6 hrs: 47.36 ± 18.57 (mcg/mL) × hrs
[1]; 750 mg/m^2 PO BID, Cycle 2 (with etoposide)
  AUC0-6 hrs: 62.84 ± 39.47 (mcg/mL) × hrs
[1]; 1000 mg/m^2 PO BID, Cycle 1
  AUC0-6 hrs: 60.05 ± 34.53 (mcg/mL) × hrs
[1]; 1000 mg/m^2 PO BID, Cycle 2 (with etoposide)
  AUC0-6 hrs: 50.18 ± 32.57 (mcg/mL) × hrs
[1]; 1500 mg/m^2 PO BID, Cycle 1
  AUC0-6 hrs: 108.38 ± 53.23 (mcg/mL) × hrs
[1]; 1500 mg/m^2 PO BID, Cycle 2 (with etoposide)
  AUC0-6 hrs: 120.69 ± 31.22 (mcg/mL) × hrs
[1]; from clinical benefit in this study and adult cancer prevention studies
  biologically effective doses of DFMO (serum concentration range): 50-150 μM
[1]; oral, 500 mg/m2
  AUC(0-t): 39000 ng·h/mL
[1]; oral, 1500 mg/m2
  AUC(0-t): 121000 ng·h/mL
[1]; oral, mean tmax, all dose groups
  Tmax: 2.5 to 3.75 h
[1]; po, 500 mg/m2, Cmax mean ± SD, 500 mg/m^2 PO BID, Cycle 1
  Cmax: 9540 ± 5360 ng/mL
[1]; po, 500 mg/m2, tmax, 500 mg/m^2 PO BID, Cycle 1
  Tmax: 3.75 ± 1.39 h
[1]; po, 750 mg/m2, Cmax mean ± SD, 750 mg/m^2 PO BID, Cycle 1
  Cmax: 11900 ± 5220 ng/mL
[1]; po, 750 mg/m2, Cmax mean ± SD, 750 mg/m^2 PO BID, Cycle 2 (with etoposide)
  Cmax: 14200 ± 7920 ng/mL
[1]; po, 750 mg/m2, tmax, 750 mg/m^2 PO BID, Cycle 1
  Tmax: 3.6 ± 1.26 h
[1]; po, 750 mg/m2, tmax, 750 mg/m^2 PO BID, Cycle 2 (with etoposide)
  Tmax: 2.6 ± 0.89 h
[1]; po, 1000 mg/m2, Cmax mean ± SD, 1000 mg/m^2 PO BID, Cycle 1
  Cmax: 14700 ± 9070 ng/mL
[1]; po, 1000 mg/m2, Cmax mean ± SD, 1000 mg/m^2 PO BID, Cycle 2 (with etoposide)
  Cmax: 14300 ± 6180 ng/mL
[1]; po, 1000 mg/m2, tmax, 1000 mg/m^2 PO BID, Cycle 1
  Tmax: 3.17 ± 1.6 h
[1]; po, 1000 mg/m2, tmax, 1000 mg/m^2 PO BID, Cycle 2 (with etoposide)
  Tmax: 3 h
[1]; po, 1500 mg/m2, Cmax mean ± SD, 1500 mg/m^2 PO BID, Cycle 1
  Cmax: 29000 ± 15000 ng/mL
[1]; po, 1500 mg/m2, Cmax mean ± SD, 1500 mg/m^2 PO BID, Cycle 2 (with etoposide)
  Cmax: 30700 ± 8180 ng/mL
[1]; po, 1500 mg/m2, tmax, 1500 mg/m^2 PO BID, Cycle 1
  Tmax: 2.88 ± 1.45 h
[1]; po, 1500 mg/m2, tmax, 1500 mg/m^2 PO BID, Cycle 2 (with etoposide)
  Tmax: 2.5 ± 0.9 h
[1]; in vivo, po
  mean Cmax and AUC versus oral dose: increased in a linear fashion
[1]; patients receiving 500 mg/m^2
  Overall average serum DFMO concentration: 9.54 μg/mL and 52.24 μM
[1]; patients receiving 1500 mg/m^2
  Overall average serum DFMO concentration: 30.71 μg/mL and 168.10 μM
[2]
  elimination half-life of DFMO: 2 to 4 h
500-1500 mg/m^2 BID, all dose levels
  dose-limiting toxicities (DLTs) or drug related serious adverse events (SAEs): No dose-limiting toxicities (DLTs) or drug related serious adverse events (SAEs) were observed
500-1500 mg/m^2 twice per day by mouth
  tolerability in pediatric patients: well tolerated
Cycle 1 (N = 21)
  ALT elevation, maximum Grade 2, patients (%): 1 (5%)
  ALT elevation, maximum Grade 3, patients (%): 0
  ALT elevation, maximum Grade 4, patients (%): 0
  ALT elevation, maximum Grade 5, patients (%): 0
  AST elevation, maximum Grade 2, patients (%): 0
  AST elevation, maximum Grade 3, patients (%): 1 (5%)
  AST elevation, maximum Grade 4, patients (%): 0
  AST elevation, maximum Grade 5, patients (%): 0
  Anemia, maximum Grade 2, patients (%): 2 (10%)
  Anemia, maximum Grade 3, patients (%): 0
  Anemia, maximum Grade 4, patients (%): 1 (5%)
  Anemia, maximum Grade 5, patients (%): 0
  Anorexia, maximum Grade 2, patients (%): 0
  Anorexia, maximum Grade 3, patients (%): 1 (5%)
  Anorexia, maximum Grade 4, patients (%): 0
  Anorexia, maximum Grade 5, patients (%): 0
  Conjunctivitis, maximum Grade 2, patients (%): 1 (5%)
  Conjunctivitis, maximum Grade 3, patients (%): 0
  Conjunctivitis, maximum Grade 4, patients (%): 0
  Conjunctivitis, maximum Grade 5, patients (%): 0
  Constipation, maximum Grade 2, patients (%): 1 (5%)
  Constipation, maximum Grade 3, patients (%): 0
  Constipation, maximum Grade 4, patients (%): 0
  Constipation, maximum Grade 5, patients (%): 0
  Diarrhea, maximum Grade 2, patients (%): 1 (5%)
  Diarrhea, maximum Grade 3, patients (%): 0
  Diarrhea, maximum Grade 4, patients (%): 0
  Diarrhea, maximum Grade 5, patients (%): 0
  GGT elevation, maximum Grade 2, patients (%): 1 (5%)
  GGT elevation, maximum Grade 3, patients (%): 0
  GGT elevation, maximum Grade 4, patients (%): 0
  GGT elevation, maximum Grade 5, patients (%): 0
  Hypoalbumenia, maximum Grade 2, patients (%): 1 (5%)
  Hypoalbumenia, maximum Grade 3, patients (%): 0
  Hypoalbumenia, maximum Grade 4, patients (%): 0
  Hypoalbumenia, maximum Grade 5, patients (%): 0
  Hypophosphatemia, maximum Grade 2, patients (%): 1 (5%)
  Hypophosphatemia, maximum Grade 3, patients (%): 0
  Hypophosphatemia, maximum Grade 4, patients (%): 0
  Hypophosphatemia, maximum Grade 5, patients (%): 0
  Infection, sinus, maximum Grade 2, patients (%): 0
  Infection, sinus, maximum Grade 3, patients (%): 0
  Infection, sinus, maximum Grade 4, patients (%): 0
  Infection, sinus, maximum Grade 5, patients (%): 0
  Mouth pain, maximum Grade 2, patients (%): 0
  Mouth pain, maximum Grade 3, patients (%): 0
  Mouth pain, maximum Grade 4, patients (%): 0
  Mouth pain, maximum Grade 5, patients (%): 0
  Nausea, maximum Grade 2, patients (%): 0
  Nausea, maximum Grade 3, patients (%): 0
  Nausea, maximum Grade 4, patients (%): 0
  Nausea, maximum Grade 5, patients (%): 0
  Neuropathy, maximum Grade 2, patients (%): 0
  Neuropathy, maximum Grade 3, patients (%): 0
  Neuropathy, maximum Grade 4, patients (%): 0
  Neuropathy, maximum Grade 5, patients (%): 0
  Neutrophil count decrease, maximum Grade 2, patients (%): 1 (5%)
  Neutrophil count decrease, maximum Grade 3, patients (%): 1 (5%)
  Neutrophil count decrease, maximum Grade 4, patients (%): 0
  Neutrophil count decrease, maximum Grade 5, patients (%): 0
  Pain, maximum Grade 2, patients (%): 0
  Pain, maximum Grade 3, patients (%): 0
  Pain, maximum Grade 4, patients (%): 0
  Pain, maximum Grade 5, patients (%): 0
  Platelet count decrease, maximum Grade 2, patients (%): 1 (5%)
  Platelet count decrease, maximum Grade 3, patients (%): 1 (5%)
  Platelet count decrease, maximum Grade 4, patients (%): 0
  Platelet count decrease, maximum Grade 5, patients (%): 0
  Rash, maximum Grade 2, patients (%): 0
  Rash, maximum Grade 3, patients (%): 0
  Rash, maximum Grade 4, patients (%): 0
  Rash, maximum Grade 5, patients (%): 0
  Sleep disturbance, maximum Grade 2, patients (%): 1 (5%)
  Sleep disturbance, maximum Grade 3, patients (%): 0
  Sleep disturbance, maximum Grade 4, patients (%): 0
  Sleep disturbance, maximum Grade 5, patients (%): 0
  Urinary retention, maximum Grade 2, patients (%): 1 (5%)
  Urinary retention, maximum Grade 3, patients (%): 0
  Urinary retention, maximum Grade 4, patients (%): 0
  Urinary retention, maximum Grade 5, patients (%): 0
  Vomiting, maximum Grade 2, patients (%): 1 (5%)
  Vomiting, maximum Grade 3, patients (%): 0
  Vomiting, maximum Grade 4, patients (%): 0
  Vomiting, maximum Grade 5, patients (%): 0
  White blood cell decreased, maximum Grade 2, patients (%): 0
  White blood cell decreased, maximum Grade 3, patients (%): 0
  White blood cell decreased, maximum Grade 4, patients (%): 0
  White blood cell decreased, maximum Grade 5, patients (%): 0
[3]
  ALT increase, N of subjects: 1
  ANC decrease, N of subjects: 2
  AST increase, N of subjects: 1
  anemia, N of subjects: 3
  anorexia, N of subjects: 1
  constipation, N of subjects: 1
  decreased platelet count, N of subjects: 2
  diarrhea, N of subjects: 1
  hypoalbuminemia, N of subjects: 1
  hypophosphatemia, N of subjects: 1
  increased GGT, N of subjects: 1
  infection (conjunctivitis), N of subjects: 1
  sleep disturbance, N of subjects: 1
  urinary retention, N of subjects: 1
  vomiting, N of subjects: 1
Up to 1500 mg/m^2 BID
  maximum tolerated dose (MTD): not established

— patent US12582625B2, “Methods for treating neuroblastoma” (priority 2015, dated 2026)
